Patent EP0647645A1, “Novel antitumoral and antiviral compound” (PHARMA MAR, S.A., priority 1993, dated 1995)

Key:
[1] = test system: KB cells; experiment: antitumoral assay, KB cell growth inhibition (cell counting); assay type: cell-based, human; conditions: four days of incubation
Protocol: (§1) Pateamine was diluted in MeOH/CH₂Cl₂ 1:1 at 100 ng/ml and it has been tested at different concentrations. The solvent was added to evaporate before the cells were seeded.
(§2) Four general antitumoral assays, employing the currently accepted screening protocols have been carried out using the following cells: P-388 (lymphoid neoplasm from DBA/2 mouse) A-549 (human lung carcinoma) HT-29 (human colon carcinoma) KB (human oral epidermoid carcinoma)
KB cells were seeded into 16 mm wells at 2 X 10⁴ cells per well. The day after the inoculum was replaced by 1 ml aliquots of MEM 10FCS containing the indicated concentration of drug. All determinations were carried out in duplicate. After four days of incubation cells were counted and the IC₅₀ was determined. DATA TABLE-IV

[2] = test system: CV-1 cells; experiment: cytotoxicity in antiviral assay, inhibition zone on the CV-1 cell sheet; conditions: CV-1/HSV-1
[3] = test system: Balb/c lymphocytes; assay type: cell-based, mice
[4] = test system: P388 cell line; experiment: P388 assay of fractions during isolation; assay type: cell-based; conditions: isolation fractions and free base form
Protocol: The sponge N.sp2 was extracted with methanol and a 3:1 mixture of methanol dichloromethane. An aqueous suspension of the entire 1 Kg extract of Mycale was extracted with three equivalent volumes of chloroform which was in turn back-extracted with distilled water. The organic extract (7.5 g) was loaded onto a C₁₈ flash column (200 g freshly prepared). Elution was started with 50% water/methanol, the methanol content was increased in steps to 100%, and then dichloromethane was added in gradual increments to 50%. Sixteen fractions were collected, weighed and assayed. Good total recovery of mass and activity was obtained with most of the activity confined to one fraction. […] A gradient solvent system was used (CH₂Cl₂, EtOAc, MeOH) and the fractions were monitored by TLC. Much of the fatty acids and pigments were eluted with the mixtures of CH₂Cl₂ and EtOAc, while a yellow charring (H₂SO₄ on silica) material came off in 5 - 20% MeOH in EtOAc. The fractions containing the yellow char were combined to yield a mass of 240 mg. […] This fraction was further purified using amino cartridges (500 mg). The activity was eluted with MeOH to yield 45 mg of material (IC₅₀ 0.5 ng/ml P388). Final purifications was obtained on a LH20 column using the eluting solvent system 9:1 MeOH/CH₂Cl₂ with 2% concentrated aqueous ammonia. This was selected to keep the active component in a free base form. […]

[5] = test system: P-388 cells; experiment: antitumoral assay, P-388 cell growth inhibition (cell counting); assay type: cell-based, DBA/2 mouse; conditions: three days of incubation
Protocol: as §1, §2
P-388 cells were seeded into 16 mm wells at 1 x 10⁴ per well in 1 ml aliquots of MEM 10FCS containing the indicated concentration or drug. All determinations were carried out in duplicate. After three days of incubation cells were counted and the IC₅₀ was determined. DATA TABLE-I

[6] = test system: CV-1 cells; experiment: cytotoxicity assay, MTT method, CV-1 cells; assay type: cell-based, monkey; conditions: three days of incubation
Protocol: (§3) Two types of cytotoxicity assays were conducted, one of them employing conventional screening protocols and the other using the MTT method. In both cases the cells were: CV-1 (monkey kidney fibroblast) BHK (hamster kidney fibroblast)
(§4) CV-1 and BHK cells were seeded into 9 mm wells at 1 x 10⁴ cells per well (logarithmic phase) and at 2 x 10⁵ cells per well (stationary phase). The day after the inoculum was replaced by […] aliquots of MEM 10FCS containing different concentrations of drug. All determinations were carried out in duplicate. After three days of incubation, 50 µl of medium containing 100 µg of MTT were added. Plates were incubated for two hours, medium was removed and 100 µl of isopropanol were added. The absorbencies were determined with a microtiter reader. DATA TABLE-VII

[7] = test system: BHK cells; experiment: cytotoxicity assay, MTT method, BHK cells; assay type: cell-based, hamster; conditions: three days of incubation
Protocol: as §3, §4

[8] = test system: BHK cells; experiment: cytotoxicity assay, BHK cell growth inhibition (cell counting); assay type: cell-based, hamster; conditions: three days of incubation
Protocol: as §1, §3
BHK cells were seeded into 16 mm wells at 2 X 10⁴ per well. The day after the inoculum was replaced by 1 ml aliquots of MEM 10FCS containing the indicated concentration of drug. All determinations were carried out in duplicate. After three days of incubation cells were counted and the IC₅₀ was determined. DATA TABLE-VI

[9] = test system: HSV-1 (herpes simplex virus, type 1); experiment: antiviral assay, plaque reduction, HSV-1 in CV-1 cells; assay type: cell-based
[10] = test system: HT-29 cells; experiment: antitumoral assay, HT-29 cell growth inhibition (cell counting); assay type: cell-based, human; conditions: four days of incubation
Protocol: as §1, §2
HT-29 cells were seeded into 16 mm wells at 4 x 10⁴ per well. The day after the inoculum was replaced by 1 ml aliquots of MEM 10FCS containing the indicated concentration of drug. All determinations were carried out in duplicate. After four days of incubation cells were counted and the IC₅₀ was determined. DATA TABLE-III

[11] = test system: A-549 cells; experiment: antitumoral assay, A-549 cell growth inhibition (cell counting); assay type: cell-based, human; conditions: three days of incubation
Protocol: as §1, §2
A-549 cells were seeded into 16 mm wells at 2 x 10⁴ per well. The day after the inoculum was replaced by 1 ml aliquots of MEM 10FCS containing the indicated concentration of drug. All determination were carried out in duplicate. After three days of incubation cells were counted and the IC₅₀ was determined. DATA TABLE-II

[12] = test system: CV-1 cells; experiment: cytotoxicity assay, CV-1 cell growth inhibition (cell counting); assay type: cell-based, monkey; conditions: four days of incubation
Protocol: as §1, §3
CV-1 cells were seeded into 16 mm wells at 2 x 10⁴ per well. The day after the inoculum was replaced by 1 ml aliquots of MEM 10FCS containing the indicated concentration of drug. All determinations were carried out in duplicate. After four days of incubation cells were counted and the IC₅₀ was determined. DATA TABLE-V

[13] = test system: VSV (vesicular stomatitis virus); assay type: cell-based

**Q.** How did the “% Inhibition KB cell growth” value ([1]; 0.1ng) turn out when pateamine was run?
**A.** The value was 70%.

**Q.** And the “% Inhibition KB cell growth” value ([1]; 0.5ng)?
**A.** The value was 67%.

**Q.** What about the “% Inhibition KB cell growth” value ([1]; 1ng) of the same substance?
**A.** Its value is 96%.

**Q.** And the “% Inhibition KB cell growth” value ([1]; 5ng)?
**A.** The value was 100%.

**Q.** What about the “% Inhibition KB cell growth” value ([1]; 10ng) of the same substance?
**A.** The value was 100%.

**Q.** And the IC₅₀ ng/ml approx. ([1]; KB cell growth)?
**A.** Its IC₅₀ ng/ml approx. is less than 0.05 ng/mL.

**Q.** What about the “cytotoxicity for the cells, inhibition zone on the cell sheet” value ([2]; 10ng) of the same substance?
**A.** Its value is 6.

**Q.** And the “cytotoxicity for the cells, inhibition zone on the cell sheet” value ([2]; 20ng)?
**A.** The value was 10.

**Q.** And the “cytotoxicity for the cells, inhibition zone on the cell sheet” value ([2]; 40ng)?
**A.** The value was 12.

**Q.** What about the “cytotoxicity for the cells, inhibition zone on the cell sheet” value ([2]; 100ng) of the same substance?
**A.** The value was 14.

**Q.** And the “cytotoxicity for the cells, inhibition zone on the cell sheet” value ([2]; 200ng)?
**A.** The value was 16.

**Q.** What about the “cytotoxicity for the cells, inhibition zone on the cell sheet” value ([2]; 400ng) of the same substance?
**A.** Its value is 16.

**Q.** What about the “IC₅₀ for the LcV” value [3] of the same substance?
**A.** Its value is 4.1 µg/mL.

**Q.** What about the IC₅₀ [4] of the same substance?
**A.** The IC₅₀ was 0.15 ng/mL.

**Q.** What about the “% Inhibition P-388 cell growth” value ([5]; 0.1ng) of the same substance?
**A.** The value was 11%.

**Q.** What about the “% Inhibition P-388 cell growth” value ([5]; 0.5ng) of the same substance?
**A.** The value was 0%.

**Q.** And the “% Inhibition P-388 cell growth” value ([5]; 1ng)?
**A.** Its value is 100%.

**Q.** And the “% Inhibition P-388 cell growth” value ([5]; 5ng)?
**A.** The value was 100%.

**Q.** What about the “% Inhibition P-388 cell growth” value ([5]; 10ng) of the same substance?
**A.** Its value is 100%.

**Q.** And the IC₅₀ ng/ml approx. ([5]; P-388 cell growth)?
**A.** The IC₅₀ ng/ml approx. was roughly 0.3 ng/mL.

**Q.** What about the IC₅₀ ([6]; log. phase) of the same substance?
**A.** The IC₅₀ was 2.4 ng/mL.

**Q.** What about the IC₅₀ ([6]; stat. phase) of the same substance?
**A.** The IC₅₀ was greater than 100 ng/mL.

**Q.** What about the IC₅₀ ([7]; log. phase) of the same substance?
**A.** Its IC₅₀ is 3.7 ng/mL.

**Q.** What about the IC₅₀ ([7]; stat. phase) of the same substance?
**A.** Its IC₅₀ is greater than 100 ng/mL.

**Q.** What about the “% Inhibition BHK cell growth” value ([8]; 0.1ng) of the same substance?
**A.** Its value is 0%.

**Q.** What about the “% Inhibition BHK cell growth” value ([8]; 0.5ng) of the same substance?
**A.** The value was 0%.

**Q.** And the “% Inhibition BHK cell growth” value ([8]; 1ng)?
**A.** The value was 0%.

**Q.** And the “% Inhibition BHK cell growth” value ([8]; 5ng)?
**A.** Its value is 98%.

**Q.** What about the “% Inhibition BHK cell growth” value ([8]; 10ng) of the same substance?
**A.** The value was 100%.

**Q.** And the IC₅₀ ng/ml approx. ([8]; BHK cell growth)?
**A.** The IC₅₀ ng/ml approx. was roughly 3 ng/mL.

**Q.** And the “% Inhibition CV-1/HSV-1 (plaque reduction sign)” value ([9]; 20ng)?
**A.** The value was “+ (The sign (+), indicates that plaques are reduced by approx. 50-60%.)”.

**Q.** And the “% Inhibition CV-1/HSV-1 (plaque reduction sign)” value ([9]; 40ng)?
**A.** The value was “++ (The sign (+ +), indicates that plaques are reduced by approx. 70-90%.)”.

**Q.** And the “% Inhibition CV-1/HSV-1 (plaque reduction sign)” value ([9]; 100ng)?
**A.** Its value is “+++ (The sign (+ + +), indicates that plaques are reduced 100%.)”.

**Q.** What about the “% Inhibition CV-1/HSV-1 (plaque reduction sign)” value ([9]; 200ng) of the same substance?
**A.** The value was “+++ (The sign (+ + +), indicates that plaques are reduced 100%.)”.

**Q.** And the “% Inhibition CV-1/HSV-1 (plaque reduction sign)” value ([9]; 400ng)?
**A.** The value was “+++ (The sign (+ + +), indicates that plaques are reduced 100%.)”.

**Q.** What about the IC₅₀ ng/disk ([9]; CV-1/HSV-1, ( + ) is the approximately IC₅₀) of the same substance?
**A.** Its IC₅₀ ng/disk is 20 ng/disk.

**Q.** What about the “% Inhibition HT-29 cell growth” value ([10]; 0.1ng) of the same substance?
**A.** The value was 0%.

**Q.** What about the “% Inhibition HT-29 cell growth” value ([10]; 0.5ng) of the same substance?
**A.** The value was 0%.

**Q.** And the “% Inhibition HT-29 cell growth” value ([10]; 1ng)?
**A.** Its value is 35%.

**Q.** And the “% Inhibition HT-29 cell growth” value ([10]; 5ng)?
**A.** The value was 85%.

**Q.** And the “% Inhibition HT-29 cell growth” value ([10]; 10ng)?
**A.** Its value is 91%.

**Q.** What about the IC₅₀ ng/ml approx. ([10]; HT-29 cell growth) of the same substance?
**A.** The IC₅₀ ng/ml approx. was roughly 2 ng/mL.

**Q.** And the “% Inhibition A-549 cell growth” value ([11]; 0.1ng)?
**A.** Its value is 0%.

**Q.** What about the “% Inhibition A-549 cell growth” value ([11]; 0.5ng) of the same substance?
**A.** The value was 0%.

**Q.** What about the “% Inhibition A-549 cell growth” value ([11]; 1ng) of the same substance?
**A.** Its value is 71%.

**Q.** And the “% Inhibition A-549 cell growth” value ([11]; 5ng)?
**A.** The value was 100%.

**Q.** What about the “% Inhibition A-549 cell growth” value ([11]; 10ng) of the same substance?
**A.** The value was 100%.

**Q.** And the IC₅₀ ng/ml approx. ([11]; A-549 cell growth)?
**A.** The IC₅₀ ng/ml approx. was roughly 0.7 ng/mL.

**Q.** And the “% Inhibition CV-1 cell growth” value ([12]; 0.1ng)?
**A.** Its value is 0%.

**Q.** What about the “% Inhibition CV-1 cell growth” value ([12]; 0.5ng) of the same substance?
**A.** Its value is 0%.

**Q.** And the “% Inhibition CV-1 cell growth” value ([12]; 1ng)?
**A.** The value was 31%.

**Q.** What about the “% Inhibition CV-1 cell growth” value ([12]; 5ng) of the same substance?
**A.** The value was 84%.

**Q.** What about the “% Inhibition CV-1 cell growth” value ([12]; 10ng) of the same substance?
**A.** Its value is 100%.

**Q.** And the IC₅₀ ng/ml approx. ([12]; CV-1 cell growth)?
**A.** Its IC₅₀ ng/ml approx. is roughly 2.4 ng/mL.

**Q.** And the IC₅₀ ng/disk [13]?
**A.** Its IC₅₀ ng/disk is greater than 20 ng/disk.
